Laboratory results: publication PMC8956739, “A synthetic lipopeptide targeting top-priority multidrug-resistant Gram-negative pathogens” (Nature Communications, 2022)
Converted amounts (≈) assume the structure as drawn. “And” between values parts separate entries of the source, which are not always exact repeats. Equal values may be shown once. Residues, ends and D or L forms follow the SMILES beside them.

Tests used:
P. aeruginosa ATCC 27853 [1] = experiment: Neutropenic mouse bloodstream infection model; assay type: in vivo; details: single IV dose 4 mg/kg; for Log10 CFU/mL blood at 4 h, Mean / Δlog10 CFU/mL blood (mean) / Log10 CFU/mL blood at 4 h, single mouse: 4 h; for Δlog10 CFU/mL blood (mean): treated minus control, mean of replicates; for Δlog10 CFU/mL blood (mean) / Log10 CFU/mL blood at 4 h, single mouse / Delta Log10 CFU/mL blood at 4 h, single mouse: 4 mg/kg; for Delta Log10 CFU/mL blood at 4 h, single mouse: treated mouse minus mean of vehicle mice
Outline: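 Female Swiss mice made neutropenic with cyclophosphamide (150 mg/kg day −4, 100 mg/kg day −1), infected IV with 50 µL of 4 × 10^8 CFU/mL. Lipopeptide 4 mg/kg (free base) IV at 2 h post-inoculation, n = 3. Efficacy = Δlog10 CFU/mL blood versus saline at 4 h post-dose.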

Swiss mice, kidney = experiment: Nephrotoxicity in mice (kidney histopathology); assay type: in vivo, mouse; details: for Kidney histopathology (SQS Score): 72 mg/kg/d subcutaneously in six divided doses every 2 h, n = 3; for Kidney histopathology, mice with the SQS score: mouse, in vivo
Outline: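 Female Swiss mice (7-week-old, 22–28 g) received lipopeptides in saline either s.c. at 12 mg/kg ×6 every 2 h (total 72 mg/kg, n = 3) or i.p. at 20 or 25 mg/kg ×6 every 2 h (total 120 mg/kg, n = 6; 150 mg/kg, n = 3). Right kidney collected 20 h after last dose, fixed in 10% buffered formalin (pH 7.4), histology scored blinded.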

A. baumannii ATCC 19606 = assay type: cell-based, Acinetobacter baumannii; details: ATCC 19606
Outline: (§1)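 Compounds were serially diluted in CaMHB, bacteria were added, and the lowest inhibitory concentration was recorded after broth microdilution testing.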

A. baumannii FADDI-AB030 = assay type: cell-based, Acinetobacter baumannii; details: FADDI-AB030
Outline: (§2)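 MICs came from broth microdilution in cation-adjusted Mueller–Hinton broth against clinical isolates. For surfactant binding, P. aeruginosa ATCC 27853 was additionally tested with 10% Survanta® (v/v, 2.5 mg/mL phospholipids) added to the polymyxin-containing broth.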

A. baumannii FADDI-AB034 = assay type: cell-based, Acinetobacter baumannii; details: FADDI-AB034
Outline: as §2

P. aeruginosa ATCC 27853 [2] = assay type: cell-based, Pseudomonas aeruginosa; details: ATCC 27853
Outline: as §1

[3] = tested on: P. aeruginosa FADDI-PA025; assay type: cell-based, Pseudomonas aeruginosa; details: FADDI-PA025
Outline: as §2

[4] = tested on: P. aeruginosa FADDI-PA038; assay type: cell-based, Pseudomonas aeruginosa; details: FADDI-PA038
Outline: as §2

[5] = tested on: K. pneumoniae FADDI-KP032; assay type: cell-based, Klebsiella pneumoniae; details: FADDI-KP032
Outline: as §2

[6] = tested on: K. pneumoniae FADDI-KP065; assay type: cell-based, Klebsiella pneumoniae; details: FADDI-KP065
Outline: as §2

Compound	Log10 CFU/mL blood at 4 h, Mean (P. aeruginosa ATCC 27853 [1]) [Log10 CFU/mL blood]	Δlog10 CFU/mL blood (mean) (P. aeruginosa ATCC 27853 [1]) [log10 CFU/mL blood]	Log10 CFU/mL blood at 4 h, single mouse (P. aeruginosa ATCC 27853 [1])	Delta Log10 CFU/mL blood at 4 h, single mouse (P. aeruginosa ATCC 27853 [1])	Kidney histopathology (SQS Score) (Swiss mice, kidney)	Kidney histopathology, mice with the SQS score (Swiss mice, kidney)	MIC A. baumannii ATCC 19606 (A. baumannii ATCC 19606) [mg/L]	MIC A. baumannii FADDI-AB030 (A. baumannii FADDI-AB030) [mg/L]	MIC A. baumannii FADDI-AB034 (A. baumannii FADDI-AB034) [mg/L]	MIC P. aeruginosa ATCC 27853 (P. aeruginosa ATCC 27853 [2]) [mg/L]	MIC P. aeruginosa FADDI-PA025 [3] [mg/L]	MIC P. aeruginosa FADDI-PA038 [4] [mg/L]	MIC K. pneumoniae FADDI-KP032 [5] [mg/L]	MIC K. pneumoniae FADDI-KP065 [6] [mg/L]	MIC, No Survanta (P. aeruginosa ATCC 27853 [2]) [mg/L]
CCCCCCCC(=O)N[C@@H](CCN)C(=O)N[C@H](C(=O)N[C@@H](CN)C(=O)N[C@H]1CCNC(=O)[C@H]([C@@H](C)O)NC(=O)[C@H](CCN)NC(=O)[C@H](CCN)NC(=O)[C@H](C)NC(=O)[C@@H](CC(C)C)NC(=O)[C@H](CCN)NC1=O)[C@@H](C)O [Lipopeptide F271] (HELM PEPTIDE1{[CCCCCCCC(=O)[*:2]].[Dab].T.[NC[C@H](N[*:1])C(=O)[*:2]].[Dab].[Dab].[dL].A.[Dab].[Dab].T}$PEPTIDE1,PEPTIDE1,5:R3-11:R2$$$V2.0)	5.18	−2.27	5.01 Log10 CFU/mL blood and 5.37 Log10 CFU/mL blood and 5.15 Log10 CFU/mL blood	-2.43 Log10 CFU/mL blood and -2.08 Log10 CFU/mL blood and -2.30 Log10 CFU/mL blood	0 (SQS 0 = no significant change (overall score, <1))	3/3	0.5 (≈ 0.455 µM)	0.25 (≈ 0.227 µM)	0.25 (≈ 0.227 µM)	0.5 (≈ 0.455 µM)	16 (≈ 14.6 µM)	1 (≈ 0.91 µM)	<0.125	<0.125	–
CCCCCCCC(=O)N[C@@H](CCN)C(=O)N[C@H](C(=O)N[C@H](CN)C(=O)N[C@H]1CCNC(=O)[C@H]([C@@H](C)O)NC(=O)[C@H](CCN)NC(=O)[C@H](CCN)NC(=O)[C@H]([C@@H](C)O)NC(=O)[C@@H](CC(C)C)NC(=O)[C@H](CCN)NC1=O)[C@@H](C)O [Lipopeptide F300] (HELM PEPTIDE1{[CCCCCCCC(=O)[*:2]].[Dab].T.[NC[C@@H](N[*:1])C(=O)[*:2]].[Dab].[Dab].[dL].T.[Dab].[Dab].T}$PEPTIDE1,PEPTIDE1,5:R3-11:R2$$$V2.0)	5.31	−1.53	5.76 Log10 CFU/mL blood and 5.85 Log10 CFU/mL blood and 4.64 Log10 CFU/mL blood and 4.99 Log10 CFU/mL blood	-1.08 Log10 CFU/mL blood and -1.00 Log10 CFU/mL blood and -2.20 Log10 CFU/mL blood and -1.85 Log10 CFU/mL blood	+2 (SQS + 2 = mild to moderate damage (overall score, 15 to <30))	3/3	0.25 (≈ 0.221 µM)	<0.125	<0.125	0.25 (≈ 0.221 µM)	4 (≈ 3.54 µM)	1 (≈ 0.885 µM)	<0.125	<0.125	1 (≈ 0.885 µM)
CCCCCCCCC(=O)N[C@@H](CCN)C(=O)N[C@H](C(=O)N[C@@H](CN)C(=O)N[C@H]1CCNC(=O)[C@H]([C@@H](C)O)NC(=O)[C@H](CCN)NC(=O)[C@H](CCN)NC(=O)[C@H](CC)NC(=O)[C@@H](CC(C)C)NC(=O)[C@H](CCN)NC1=O)[C@@H](C)O [Lipopeptide F314] (HELM PEPTIDE1{[CCCCCCCCC(=O)[*:2]].[Dab].T.[NC[C@H](N[*:1])C(=O)[*:2]].[Dab].[Dab].[dL].[Abu].[Dab].[Dab].T}$PEPTIDE1,PEPTIDE1,5:R3-11:R2$$$V2.0)	4.33	−2.82	4.52 Log10 CFU/mL blood and 4.04 Log10 CFU/mL blood and 4.42 Log10 CFU/mL blood	-2.63 Log10 CFU/mL blood and -3.10 Log10 CFU/mL blood and -2.72 Log10 CFU/mL blood	+1 (SQS + 1 = mild damage (overall score, 1 to <15))	3/3	0.5 (≈ 0.443 µM)	0.5 (≈ 0.443 µM)	2 (≈ 1.77 µM)	1 (≈ 0.887 µM)	>32	2 (≈ 1.77 µM)	<0.125	0.25 (≈ 0.222 µM)	–
CC[C@@H]1NC(=O)[C@@H](CC(C)C)NC(=O)[C@H](CCN)NC(=O)[C@@H](NC(=O)[C@H](CN)NC(=O)[C@@H](NC(=O)[C@H](CCN)NC(=O)c2c(Cl)cccc2Cl)[C@@H](C)O)CCNC(=O)[C@H]([C@@H](C)O)NC(=O)[C@H](CCN)NC(=O)[C@H](CCN)NC1=O [Lipopeptide F360] (HELM PEPTIDE1{[O=C(c1c(Cl)cccc1Cl)[*:2]].[Dab].T.[NC[C@H](N[*:1])C(=O)[*:2]].[Dab].[Dab].[dL].[Abu].[Dab].[Dab].T}$PEPTIDE1,PEPTIDE1,5:R3-11:R2$$$V2.0)	7.04	−0.07	7.26 Log10 CFU/mL blood and 6.45 Log10 CFU/mL blood and 7.41 Log10 CFU/mL blood	0.15 Log10 CFU/mL blood and -0.66 Log10 CFU/mL blood and 0.30 Log10 CFU/mL blood	0 (SQS 0 = no significant change (overall score, <1))	3/3	16 (≈ 13.8 µM)	4 (≈ 3.45 µM)	8 (≈ 6.9 µM)	0.5 (≈ 0.431 µM)	4 (≈ 3.45 µM)	4 (≈ 3.45 µM)	1 (≈ 0.862 µM)	0.5 (≈ 0.431 µM)	–
